Entries after “also recorded” stand apart in the source; their conditions may differ.
Key:
Type in all cases: cell-based
CHRM2 [1] = target: T1, CHRM2 (Homo sapiens, UniProt P08172); assay: GPCR reactivity screen, PathHunter β-Arrestin, agonist assay CHRM2; design: concentration or dose not given beside the values; settings: agonist mode; control acetylcholine
T1 sequence (P08172 1-466): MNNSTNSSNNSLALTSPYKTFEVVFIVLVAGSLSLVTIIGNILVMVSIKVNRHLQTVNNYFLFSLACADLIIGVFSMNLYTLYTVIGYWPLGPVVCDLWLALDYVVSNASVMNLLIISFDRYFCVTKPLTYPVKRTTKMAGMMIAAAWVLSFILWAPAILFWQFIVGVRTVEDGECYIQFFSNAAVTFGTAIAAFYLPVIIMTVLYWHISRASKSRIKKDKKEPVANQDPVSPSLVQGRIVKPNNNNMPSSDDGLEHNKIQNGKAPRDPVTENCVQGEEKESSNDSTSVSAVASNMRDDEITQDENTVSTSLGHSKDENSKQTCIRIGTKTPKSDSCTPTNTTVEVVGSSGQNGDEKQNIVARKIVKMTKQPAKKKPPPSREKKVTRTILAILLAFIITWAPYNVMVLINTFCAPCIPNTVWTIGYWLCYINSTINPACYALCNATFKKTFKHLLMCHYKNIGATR
Description: (§1) To evaluate the role specific cannabinoid compounds play in the neurological signaling pathway for itching, a GPCR reactivity assay was performed to determine the reactivity of 19 cannabinoid compounds to each of CHRM2, EDG3, and MRGPRX2. The evaluated cannabinoid compounds were: CBN, THCV, CBDVA, CBG, CBL, CBC, CBDV, CBDA, CBD, CBGA, (+)-CBD, CBG-C4, CBD-C1, CBD-C2, CBGV, CBGA-C4, CBGVA, CBCA, and CBLA. Acetylcholine was used as the control for CHRM2, sphingosine-1-phosphate was used as the control for EDG3; and cortistatin 14 was used as the control for MRGPRX2.
(§2) A total of six assays were run. Specifically, agonist and antagonist assays were run for each of CHRM2, EDG3, and MRGPRX2. In each of the three agonist assays, PathHunter® cell lines were removed from a freezer stock and seeded at a volume of 20 μL into white walled, 384-well microplates and incubated at 37° C. Each cell was incubated with a sample to induce a response and then diluted to generate a 5× sample in assay buffer. 5 μL of the 5× sample was then added to cells and incubated at 37° C. for 90 or 180 minutes. The final assay concentration was 1%. The assay signal was generated through addition of 12.5 μL or 15 μL (50% V/V) of a detection reagent cocktail followed by a one hour incubation time at room temperature. Microplates were read following signal generation with a PerkinElmer Envision™ (PerkinElmer Inc., Waltham, Mass.) for chemiluminescent signal detection. Reactivity was analyzed using the CBIS data analysis suite (ChemInnovation, CA) where RLU refers to the raw measured values. The percent activity was then calculated using the formula: % Activity=100%*(mean RLU of test sample−mean RLU of control)/(mean max control ligand−mean RLU of vehicle control).
(§3) As used herein, strong activity against a receptor is considered a percent activity of about 42% or higher. Higher results for antagonism against CHRM2, EDGE, and MRGPRX2 are considered better. It is further considered better when a cannabinoid inhibits more than one of the receptors.

CHRM2 [2] = target: T1, CHRM2; assay: GPCR reactivity screen, PathHunter β-Arrestin, antagonist assay CHRM2; settings: for antagonist activity against CHRM2 (in words): GPCR reactivity screen; for CHRM2 (Antagonist) percent inhibition: antagonist mode, agonist challenge at EC80
Description: as §1
(§4) In each of the antagonist assays, PathHunter® cell lines were removed from a freezer stock and seeded at a volume of 20 μL into white walled, 384-well microplates and incubated at 37° C. Each cell was pre-incubated with an antagonist followed by an agonist challenge at the EC80 concentration. Cells were then diluted to generate a 5× sample in assay buffer. 5 μL of the 5× sample was then added to cells and incubated at 37° C. for 30 minutes. Finally, 5 μL of 6×EC80 agonist in assay buffer were added to the cells and incubated at 37° C. for 90 minutes or 180 minutes. The assay signal was generated through addition of 12.5 μL or 15 μL (50% V/V) of a detection reagent cocktail followed by a one hour incubation time at room temperature. Microplates were read following signal generation with a PerkinElmer Envision™ (PerkinElmer Inc., Waltham, Mass.) for chemiluminescent signal detection. Reactivity was analyzed using the CBIS data analysis suite (ChemInnovation, CA) where RLU refers to the raw measured values. The percent inhibition was calculated using the formula: % Inhibition=100%*(1−mean RLU of test sample−mean RLU of control)/(mean RLU of EC80 control−mean RLU of vehicle control).
as §3

EDG3 [3] = target: T2, EDG3 (Homo sapiens, UniProt Q99500); assay: GPCR reactivity screen, PathHunter β-Arrestin, antagonist assay EDG3; settings: for antagonist activity against EDG3 (in words): GPCR reactivity screen; for EDG3 (Antagonist) percent inhibition: antagonist mode, agonist challenge at EC80
Description: as §1, §4, §3

EDG3 [4] = target: T2, EDG3; assay: GPCR reactivity screen, PathHunter β-Arrestin, agonist assay EDG3; design: concentration or dose not given beside the values; settings: agonist mode; control sphingosine-1-phosphate
Description: as §1, §2, §3

MRGPRX2 [5] = target: T3, MRGPRX2 (Homo sapiens, UniProt Q96LB1); assay: GPCR reactivity screen, PathHunter β-Arrestin, agonist assay MRGPRX2; settings: agonist mode; control cortistatin 14
T3 sequence (Q96LB1 1-330): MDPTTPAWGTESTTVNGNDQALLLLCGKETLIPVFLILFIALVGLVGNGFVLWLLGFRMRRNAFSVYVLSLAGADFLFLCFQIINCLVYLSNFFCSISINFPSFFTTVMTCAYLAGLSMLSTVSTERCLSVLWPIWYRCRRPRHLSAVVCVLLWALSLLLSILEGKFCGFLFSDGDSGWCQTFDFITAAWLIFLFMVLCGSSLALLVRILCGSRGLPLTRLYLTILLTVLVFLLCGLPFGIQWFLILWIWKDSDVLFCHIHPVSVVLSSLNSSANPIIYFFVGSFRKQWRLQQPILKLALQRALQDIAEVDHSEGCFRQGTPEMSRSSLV
Description: as §1, §2, §3

MRGPRX2 [6] = target: T3, MRGPRX2; assay: GPCR reactivity screen, PathHunter β-Arrestin, antagonist assay MRGPRX2; settings: for antagonist activity against MRGPRX2 (in words): GPCR reactivity screen; for MRGPRX2 (Antagonist) percent inhibition: antagonist mode, agonist challenge at EC80
Description: as §1, §4, §3

MRGPRX2 [7] = target: T3, MRGPRX2; assay: IC50 antagonist activity screen, PathHunter β-Arrestin, MRGPRX2; settings: maximum of IC50 curve
Description: as §4
IC50 curves were measured using the same GPCR assay, PathHunter® β-Arrestin from Eurofins DiscoverX Products (Fremont, Calif.), as the GPCR reactivity screen. As used herein, strong activity against a receptor is considered a maximum activity of about 42% or higher. Higher results for antagonism against CHRM2, EDGE, and MRGPRX2 are considered better. It is further considered better when a cannabinoid inhibits more than one of the receptors.

T2 sequence (Q99500 whole entry): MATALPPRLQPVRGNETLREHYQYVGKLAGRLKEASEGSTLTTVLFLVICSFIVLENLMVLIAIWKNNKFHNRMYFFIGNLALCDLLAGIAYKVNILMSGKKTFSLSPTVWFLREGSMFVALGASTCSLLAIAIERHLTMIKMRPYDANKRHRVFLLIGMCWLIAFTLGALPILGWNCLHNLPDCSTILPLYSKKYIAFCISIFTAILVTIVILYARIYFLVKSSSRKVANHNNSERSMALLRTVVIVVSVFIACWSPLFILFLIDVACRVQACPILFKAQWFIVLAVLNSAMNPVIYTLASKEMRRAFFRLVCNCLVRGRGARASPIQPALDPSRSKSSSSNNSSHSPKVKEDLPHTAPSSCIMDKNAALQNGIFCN

Row | Compound | CHRM2 (Agonist) percent activity (CHRM2 [1]) [%] | antagonist activity against CHRM2 (in words) (CHRM2 [2]) | CHRM2 (Antagonist) percent inhibition (CHRM2 [2]) [%] | antagonist activity against EDG3 (in words) (EDG3 [3]) | EDG3 (Antagonist) percent inhibition (EDG3 [3]) [%] | EDG3 (Agonist) percent activity (EDG3 [4]) [%] | MRGPRX2 (Agonist) percent activity (MRGPRX2 [5]) [%] | antagonist activity against MRGPRX2 (in words) (MRGPRX2 [6]) | MRGPRX2 (Antagonist) percent inhibition (MRGPRX2 [6]) [%] | maximum inhibition (antagonism) MRGPRX2 (MRGPRX2 [7]) [%]
1 | C=C(C)[C@@H]1CCC(C)=C[C@H]1c1c(O)cc(C)cc1O [CBD-C1, cannabidiorcol] | −1 | do not exhibit an antagonistic effect; also recorded: did not exhibit antagonistic effects | 2 | do not exhibit an antagonistic effect; also recorded: did not exhibit antagonistic effects | 13 | 1 | 1 | do not exhibit an antagonistic effect; also recorded: did not exhibit antagonistic effects | 12 | –
2 | C=C(C)[C@@H]1CCC(C)=C[C@H]1c1c(O)cc(CC)cc1O [CBD-C2, cannabidol-C2] | 1 | do not exhibit an antagonistic effect; also recorded: did not exhibit antagonistic effects | 21 | do not exhibit an antagonistic effect; also recorded: did not exhibit antagonistic effects | 20 | 1 | 1 | do not exhibit an antagonistic effect; also recorded: did not exhibit antagonistic effects | 31 | 43
3 | C=C(C)[C@@H]1CCC(C)=C[C@H]1c1c(O)cc(CCCCC)c(C(=O)O)c1O [CBDA, cannabidiolic acid] | 1 | do not exhibit an antagonistic effect | −10 | do not exhibit an antagonistic effect | 5 | −1 | 4 | do not exhibit an antagonistic effect | 8 | –
4 | C=C(C)[C@@H]1CCC(C)=C[C@H]1c1c(O)cc(CCC)c(C(=O)O)c1O [CBDVA, cannabidivarinic acid] | 2 | do not exhibit an antagonistic effect | 2 | do not exhibit an antagonistic effect | 13 | −3 | 5 | do not exhibit an antagonistic effect | −8 | –
5 | CCCCc1cc(O)c(CC=C(C)CCC=C(C)C)c(O)c1 [CBG-C4, cannabigerol butyl] | 0 | – | 13 | – | 28 | 3 | 3 | antagonist activity | 94 | 85
6 | CCCCCc1cc(O)c(C/C=C(\C)CCC=C(C)C)c(O)c1C(=O)O [CBGA, cannabigerolic acid] | −3 | do not exhibit an antagonistic effect | 12 | do not exhibit an antagonistic effect | 12 | 2 | 0 | do not exhibit an antagonistic effect | 17 | –
7 | CCCCc1cc(O)c(C/C=C(\C)CCC=C(C)C)c(O)c1C(=O)O [CBGA-C4, cannabigerolic acid butyl] | −4 | do not exhibit an antagonistic effect | 19 | do not exhibit an antagonistic effect | 16 | 0 | −1 | do not exhibit an antagonistic effect | 20 | –
8 | CCCc1cc(O)c(C/C=C(\C)CCC=C(C)C)c(O)c1C(=O)O [CBGVA, cannabigerovarinic acid] | −4 | do not exhibit an antagonistic effect | 23 | do not exhibit an antagonistic effect | 9 | −1 | −1 | do not exhibit an antagonistic effect | 7 | –

From patent publication US20230000936A1, “A[…] ITCHING […] C[…]” (Demetrix, Inc., priority 2021, published 2023)
